The text below walks through data of article PMC2833169, “Anti-malarial activity of a non-piperidine library of next-generation quinoline methanols” (Malaria Journal, 2010).

Converted amounts (≈) assume the structure as drawn. Read-outs that look alike come from different tables or passages of the source.

Data set [1] concerns the target T1, CYP450 2D6 (Homo sapiens, UniProt P10635).
T1 construct: purchased BD Gentest (Franklin Lakes, NJ)
Nature of the data set: CYP450 inhibition kit (drug-drug interaction), 2D6. It counts as biochemical. On the procedure:
(§1) Low IC50s against specific cytochrome P450 isoforms may indicate the potential for a harmful drug interaction to occur in vivo with substrates of that isoform. A lack of metabolic stability in vitro may indicate potential metabolic instability in vivo, and, therefore, a shorter half-life. Drug interaction potential was evaluated in vitro using BD Gentest (Franklin Lakes, NJ) CYP450 inhibition kits as recommended by the manufacturer. Metabolic stability assessments were conducted using in vitro liver microsomes. […] The reaction is started with the addition of 1 U/mL glucose-6-phosphate dehydrogenase G6PD. The mixture is incubated on a shaking platform at 37°C, and aliquots are taken and quenched with the addition of an equal volume of cold acetonitrile at 0, 10, 20, 30, and 60 min. Samples are centrifuged at 3700 rpm for […] at 20°C to remove debris. Sample quantification is carried out by LC/MS, and metabolic half-life is calculated by log plots of the total ion chromatograph area remaining.

In data set [2] the target is T2, CYP450 1A2 (Homo sapiens, UniProt P05177).
T2 construct: purchased BD Gentest (Franklin Lakes, NJ)
T2 sequence (P05177 1-516): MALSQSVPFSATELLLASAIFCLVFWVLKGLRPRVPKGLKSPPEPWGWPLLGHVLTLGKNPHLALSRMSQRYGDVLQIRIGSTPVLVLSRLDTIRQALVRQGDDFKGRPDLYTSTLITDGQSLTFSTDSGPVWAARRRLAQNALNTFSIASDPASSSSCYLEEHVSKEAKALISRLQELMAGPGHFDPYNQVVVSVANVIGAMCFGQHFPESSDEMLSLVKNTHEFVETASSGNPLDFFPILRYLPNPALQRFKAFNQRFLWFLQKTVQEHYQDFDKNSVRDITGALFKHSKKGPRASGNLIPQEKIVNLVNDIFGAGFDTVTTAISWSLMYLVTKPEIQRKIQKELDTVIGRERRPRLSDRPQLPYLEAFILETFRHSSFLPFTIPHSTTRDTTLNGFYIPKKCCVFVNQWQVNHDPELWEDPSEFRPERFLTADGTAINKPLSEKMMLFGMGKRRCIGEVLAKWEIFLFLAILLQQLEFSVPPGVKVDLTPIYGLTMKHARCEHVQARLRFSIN
Put plainly: CYP450 inhibition kit (drug-drug interaction), 1A2. It counts as biochemical. On the procedure: as §1

The test system of data set [3] is P. falciparum strain TM91C235. Put plainly: labeled hypoxanthine susceptibility assay, P. falciparum TM91C235. It counts as cell-based, Plasmodium falciparum. As to conditions: Plasmodium falciparum. On the procedure:
The in vitro activities of quinoline methanols against P. falciparum strains W2, D6, TM91C235, and TM90C2A were evaluated using the traditional labeled hypoxanthine assay of Desjardins et al as modified by Milhous et al. These four P. falciparum strains were selected since they have various levels of resistance to conventional anti-malarials.

The target of data set [4] is T3, CYP450 3A4 (Homo sapiens, UniProt P08684).
T3 construct: purchased BD Gentest (Franklin Lakes, NJ)
Put plainly: CYP450 inhibition kit (drug-drug interaction), 3A4. The class given is biochemical. Here is the method: as §1

The target of data set [5] is T4, CYP450 2C9 (Homo sapiens, UniProt P11712).
T4 construct: purchased BD Gentest (Franklin Lakes, NJ)
Nature of the data set: CYP450 inhibition kit (drug-drug interaction), 2C9. It counts as biochemical. Here is the method:
as §1

Data set [6] deals with rodent macrophage (RAW) cell line. Nature of the data set: cells. As to conditions: Mus musculus, Macrophage, read-out: Macrophage IC50.
Data set [7] can be described thus: in vitro. As to conditions: mouse.
A short description of data set [8]: in vitro. As to conditions: dog, MDCK-MDR1, pH 7.4. Here is the method: For this reason, the apparent permeability of selected compounds across MDR1-transfected MDCK cell monolayers was determined. This assay is an in vitro surrogate of the blood-brain barrier.
Permeability was determined by Absorption Systems (Exton, PA). MDR1-MDCK cell monolayers were grown to confluence on collagen-coated, microporous, polycarbonate membranes in 12-well Costar Transwell plates. […] The permeability assay buffer was Hanks Balanced Salt Solution containing 10 mM HEPES and 15 mM glucose at a pH of 7.4. A known p-glycoprotein inhibitor cyclosporin A (CSA) was also added to the assay buffer at 10 μM. Bovine serum albumin (1%) was added to the receiver well. The dosing solution concentrations of the test compounds were 5.0 μM in the assay buffer. All cell monolayers were first pre-incubated for 30 minutes with assay buffer. After 30 minutes, the buffer was removed, replaced with fresh buffer, and time was recorded as 0. […] Cell monolayers were dosed on the apical side (A-to-B) or basolateral side (B-to-A) and incubated at 37°C with 5% CO2 in a humidified incubator. After 2 hours, aliquots were taken from the receiver chambers. Samples were taken from the donor chamber at 0 and 2 hours. Each determination was performed in duplicate. The lucifer yellow flux was also measured for each monolayer to ensure no damage was inflicted to the cell monolayers during the flux period. All samples were assayed by LC/MS/MS using electrospray ionization.
Apparent permeability in the apical (A-B direction), PappA-B, and percent recovery are reported. Apparent permeability is a measure of the rate of transport across the cell monolayer. Percent recovery refers to the amount of compound recoverable at the end of the assay. Low recovery may indicate non-specific binding to assay plates, instability or accumulation in the cell pellet.
The apparent permeability, Papp, and percent recovery were calculated as follows:
Papp = (dCr/dt) × Vr/(A × C0) (1)
Percent Recovery = 100 × ((Vr × Cr^final) + (Vd × Cd^final))/(Vd × […]) (2)

T1 sequence (P10635 whole entry): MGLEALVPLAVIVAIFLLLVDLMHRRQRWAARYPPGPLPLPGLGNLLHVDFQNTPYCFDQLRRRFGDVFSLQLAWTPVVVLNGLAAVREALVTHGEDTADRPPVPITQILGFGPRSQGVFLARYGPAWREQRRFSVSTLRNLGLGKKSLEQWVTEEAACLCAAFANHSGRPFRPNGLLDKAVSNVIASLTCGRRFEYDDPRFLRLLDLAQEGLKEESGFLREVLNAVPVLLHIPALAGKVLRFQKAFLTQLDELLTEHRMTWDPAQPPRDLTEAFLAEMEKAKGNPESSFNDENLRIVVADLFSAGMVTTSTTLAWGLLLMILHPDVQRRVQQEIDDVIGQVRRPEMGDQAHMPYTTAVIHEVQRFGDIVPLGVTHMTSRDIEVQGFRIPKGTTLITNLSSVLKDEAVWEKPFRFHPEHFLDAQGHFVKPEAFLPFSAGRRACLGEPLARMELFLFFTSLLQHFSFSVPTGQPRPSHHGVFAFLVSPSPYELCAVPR
T4 sequence (P11712 whole entry): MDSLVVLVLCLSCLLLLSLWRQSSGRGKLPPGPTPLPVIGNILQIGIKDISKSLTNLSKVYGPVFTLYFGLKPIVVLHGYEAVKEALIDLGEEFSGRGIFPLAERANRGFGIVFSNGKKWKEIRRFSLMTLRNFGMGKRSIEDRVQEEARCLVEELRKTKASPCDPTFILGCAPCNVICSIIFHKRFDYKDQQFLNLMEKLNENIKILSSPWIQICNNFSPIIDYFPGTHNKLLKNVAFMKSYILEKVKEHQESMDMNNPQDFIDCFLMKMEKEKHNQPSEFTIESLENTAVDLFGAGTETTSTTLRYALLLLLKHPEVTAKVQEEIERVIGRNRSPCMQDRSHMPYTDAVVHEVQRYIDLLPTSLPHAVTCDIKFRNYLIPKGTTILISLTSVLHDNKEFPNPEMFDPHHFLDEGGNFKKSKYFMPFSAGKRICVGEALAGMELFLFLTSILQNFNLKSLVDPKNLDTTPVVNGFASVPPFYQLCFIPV
T3 sequence (P08684 whole entry): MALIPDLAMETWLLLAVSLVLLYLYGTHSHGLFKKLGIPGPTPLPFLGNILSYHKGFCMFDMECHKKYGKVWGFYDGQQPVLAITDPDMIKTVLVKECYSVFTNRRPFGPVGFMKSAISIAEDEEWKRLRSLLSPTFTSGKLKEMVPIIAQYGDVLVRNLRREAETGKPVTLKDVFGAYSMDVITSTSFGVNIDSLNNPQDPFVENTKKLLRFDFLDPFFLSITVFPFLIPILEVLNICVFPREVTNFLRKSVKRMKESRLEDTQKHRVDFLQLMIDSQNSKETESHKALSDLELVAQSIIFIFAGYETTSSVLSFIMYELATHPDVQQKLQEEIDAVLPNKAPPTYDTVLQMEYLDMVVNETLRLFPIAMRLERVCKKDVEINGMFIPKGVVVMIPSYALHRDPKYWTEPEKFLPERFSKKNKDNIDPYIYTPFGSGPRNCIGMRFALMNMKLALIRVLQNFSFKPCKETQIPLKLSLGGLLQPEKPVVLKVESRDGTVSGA

Regarding `OC(CNCCNCc1ccccc1)c1cc(C(F)(F)F)nc2c(C(F)(F)F)cccc12` (stereo not drawn) [WR308396], the IC50 stood at 0.7 µM in data set [1]; 5.4 µM in data set [2]; 3.3 µM in data set [4]; 14 µM in data set [5]; 18.1 µM in data set [6]. Also, the results for the IC90 in data set [3] (read-out: IC90 Pf C235) and in data set [3] (read-out: PF C235 IC90) were 0.04 µg/mL (≈ 0.0874 µM) and 0.0401 µg/mL (≈ 0.0877 µM), respectively. For the same compound, in data set [7], the CC50 is 8.28 µg/mL (≈ 18.1 µM).
Turning to `CNCC(O)c1cc(C(F)(F)F)nc2c(C(F)(F)F)cccc12` (stereo not drawn) [WR308245], the IC50 in data set [1] was 7.4 µM; in data set [2] it was 1.8 µM; in data set [4] it was 26 µM; in data set [5] it was greater than 40 µM; in data set [6], 40.4 µM. Also, the IC90 in data set [3] (read-out: IC90 Pf C235) came to 0.058 µg/mL (≈ 0.171 µM); in data set [3] (read-out: PF C235 IC90) it was 0.0576 µg/mL (≈ 0.17 µM).
Take `CSCCCNCC(O)c1cc(C(F)(F)F)nc2c(C(F)(F)F)cccc12` (stereo not drawn) [WR308278]: the IC50 in data set [1] is 1.4 µM; in data set [2], 3.5 µM; in data set [4], 16 µM; in data set [5], 6.3 µM; in data set [6], 20.9 µM. Moreover, the IC90 in data set [3] (read-out: IC90 Pf C235) stood at 0.039 µg/mL (≈ 0.0946 µM); in data set [3] (read-out: PF C235 IC90), 0.0393 µg/mL (≈ 0.0953 µM).
With `CC(C)NCC(O)c1cc(C(F)(F)F)nc2c(C(F)(F)F)cccc12` (stereo not drawn) [WR308257], the half-maximal inhibitory concentration (IC50) is 1.9 µM in data set [1]; 3.9 µM in data set [2]; greater than 40 µM in data set [4]; 37 µM in data set [5]; 14.2 µM in data set [6]. This compound also gave a Papp A→B at 2 h, 5 μM in data set [8] of 25 ×10⁻⁶ cm/s. Besides, the IC90 was determined as 0.023 µg/mL (≈ 0.0628 µM) in data set [3] (read-out: IC90 Pf C235) and 0.0234 µg/mL (≈ 0.0638 µM) in data set [3] (read-out: PF C235 IC90).
